Test results: PMC6269716 (2013)

What was measured:
[1] = tested on: DK66 (DNA, duplex) CGCGAATTCGCG; assay: ESI-MS peak intensities; conditions: NH4+ (150 mM ammonium acetate), 15% methanol added before injection, 5 µM DNA
[2] = tested on: HTelo21 (DNA, G4) GGGTTAGGGTTAGGGTTAGGG; assay: ESI-MS peak intensities; conditions: NH4+ (150 mM ammonium acetate); 15% methanol added before injection; 5 µM DNA; site 1 of 2
[3] = tested on: T Loop (DNA, hairpin, hexaethyleneglycol (HEG) linker between nucleotides 10 and 11 as hairpin loop) TATAGCTATATATAGCTATA; assay: FRET melting; conditions: K+ (60 mM); potassium cacodylate pH 7.4; 1 µM compound; 200 nM DNA
[4] = tested on: F21T (HTelo-21, FRET) (DNA, G4) GGGTTAGGGTTAGGGTTAGGG; assay: FRET melting; conditions: K+ (60 mM); potassium cacodylate pH 7.4; 1 µM compound; 200 nM DNA
[5] = tested on: CKIT1 (c-kit-1, FRET) (DNA, G4) AGAGGGAGGGCGCTGGGAGGAGGGGCT; assay: FRET melting; conditions: K+ (60 mM); potassium cacodylate pH 7.4; 1 µM compound; 200 nM DNA
[6] = tested on: BCL2 (FRET) (DNA, G4) GGGCGCGGGAGGAAGGGGGCGGG; assay: FRET melting; conditions: K+ (60 mM); potassium cacodylate pH 7.4; 1 µM compound; 200 nM DNA

Row | SMILES | Log K1 ([1]; site 1 of 2) | Log K1 [2] | ΔTm [3] | ΔTm [4] | ΔTm [5] | ΔTm [6] | Log K1 [1]
1 | CN1CCN(CCCCCC(=O)c2ccc3oc4ccc(C(=O)CCCCCN5CCN(C)CC5)cc4c(=O)c3c2)CC1 | 1.8 ± 0.2 | 4.1 ± 0.1 |  |  |  |  | 
2 | O=C(CCCCCN1CCCCC1)c1ccc2c(c1)C(CCCC1c3cc(C(=O)CCCCCN4CCCCC4)ccc3Oc3ccc(C(=O)CCCCCN4CCCCC4)cc31)c1cc(C(=O)CCCCCN3CCCCC3)ccc1O2 | 3.9 ± 0.1 | 5.8 ± 0.1 |  |  |  |  | 
3 | CN(C)CCCCCC(=O)c1ccc2oc3ccc(C(=O)CCCCCN(C)C)cc3c(=O)c2c1 | 3.3 ± 0.2 | 4.0 ± 0.1 |  |  |  |  | 
4 | CN1CCN(CCCCOc2ccc3c(=O)c4ccc(OCCCCN5CCN(C)CC5)cc4oc3c2)CC1 | 3.5 ± 0.1 | 4.3 ± 0.1 |  |  |  |  | 
5 | CN(C)CCCCOc1ccc2c(=O)c3ccc(OCCCCN(C)C)cc3oc2c1 | 3.6 ± 0.1 | 4.7 ± 0.1 |  |  |  |  | 
6 | CN1CCN(CCCCCC(=O)c2ccc3c(c2)Cc2cc(C(=O)CCCCCN4CCN(C)CC4)ccc2O3)CC1 | 3.7 ± 0.1 | 4.4 ± 0.1 |  |  |  |  | 
7 | CN(C)CCCCCC(=O)c1ccc2c(c1)Cc1cc(C(=O)CCCCCN(C)C)ccc1O2 | 3.4 ± 0.2 | 4.6 ± 0.1 |  |  |  |  | 
8 | O=C(CCCCCN1CCCCC1)c1ccc2c(c1)Cc1cc(C(=O)CCCCCN3CCCCC3)ccc1O2 | 3.8 ± 0.2 | 4.7 ± 0.1 | 0.4 ± 0.1 °C | 1.3 ± 0.1 °C | 1.0 ± 0.1 °C | 0.7 ± 0.1 °C | 
9 | O=C(CCCCCN1CCCCC1)c1ccc2oc3ccc(C(=O)CCCCCN4CCCCC4)cc3c(=O)c2c1 | 3.7 ± 0.1 | 4.4 ± 0.1 |  |  |  |  | 
10 | O=c1c2ccc(OCCCCN3CCCCC3)cc2oc2cc(OCCCCN3CCCCC3)ccc12 |  | 4.7 ± 0.1 |  |  |  |  | 3.4 ± 0.1
11 | CN(C)CCCCCC(=O)c1ccc2c(c1)C(CCCCN(C)C)c1cc(C(=O)CCCCCN(C)C)ccc1O2 | 3.6 ± 0.3 | 5.2 ± 0.4 | 2.2 ± 0.1 °C | 11.9 ± 0.1 °C | 7.9 ± 0.1 °C | 4.8 ± 0.1 °C | 
